Experimental data reported in US11167007B2, “FOXM1 modulators and uses thereof” (City of Hope, priority 2016, dated 2021).

Molecular target: T1, FOXM1 (Rattus norvegicus, UniProt P97691)
T1 construct: from tissue; host or cells: Sprague Dawley rat spinal cord
T1 sequence (P97691 1-759): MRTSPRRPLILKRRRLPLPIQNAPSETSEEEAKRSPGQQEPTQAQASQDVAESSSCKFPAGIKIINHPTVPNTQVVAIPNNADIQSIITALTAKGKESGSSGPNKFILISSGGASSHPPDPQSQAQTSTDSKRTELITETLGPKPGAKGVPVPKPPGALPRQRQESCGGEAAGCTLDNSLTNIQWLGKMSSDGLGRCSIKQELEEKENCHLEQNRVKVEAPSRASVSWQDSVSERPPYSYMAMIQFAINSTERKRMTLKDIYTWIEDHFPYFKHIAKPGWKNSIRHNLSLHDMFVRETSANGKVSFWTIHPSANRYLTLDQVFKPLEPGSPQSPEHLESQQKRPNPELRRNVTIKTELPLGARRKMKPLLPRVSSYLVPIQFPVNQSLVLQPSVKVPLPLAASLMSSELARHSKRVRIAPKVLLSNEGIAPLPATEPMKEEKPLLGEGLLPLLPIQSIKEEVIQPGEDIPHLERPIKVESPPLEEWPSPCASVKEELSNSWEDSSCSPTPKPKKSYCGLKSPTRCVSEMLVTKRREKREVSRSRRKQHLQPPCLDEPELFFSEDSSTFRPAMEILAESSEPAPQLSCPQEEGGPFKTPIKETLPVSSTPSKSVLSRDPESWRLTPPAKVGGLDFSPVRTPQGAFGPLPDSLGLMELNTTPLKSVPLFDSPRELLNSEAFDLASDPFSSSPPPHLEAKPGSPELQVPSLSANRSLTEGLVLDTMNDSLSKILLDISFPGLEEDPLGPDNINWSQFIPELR
Test: RT-qPCR of FOXM1 target gene transcripts in spinal cord
Assay type: in vivo
Settings: rats, compared to intact controls, FIG. 5G
Experimental: Animals and Drugs. This study was carried out in strict accordance with the recommendations in the Guide for the Care and Use of Laboratory Animals of the National Institutes of Health. All experiments were performed under the IUCAC approval of City of Hope. Animals were purchased from Jackson Laboratory (Bar Harbor, Main). For the pilot pharmacokinetic experiment, nine male Sprague Dawley rats (n=3) were administered 1, 10, or 100 mg/kg intraperitoneal injections thrice per week for four weeks. One hour following the final dose, blood and spinal fluid were collected and analyzed by mass spectrometry. For the efficacy experiment, rats were divided into 3 groups (n=7) as follows: intact, castrated, and thiostrepton. […] Following a treatment period of 7 days, rats were euthanized and organs harvested, weighed and processed for quantitative RT-PCR.
qRT-PCR. The quantitative RT-PCR method has been described by Jones et al, ACS Chem Biol, 3(7):412-8 (2008). […] Differences between experimental (x) and control (y) samples were normalized to RPL19 transcript levels (androgen unresponsive) and determined with the following calculation: (2^(Ctsgene1-Ctygene1))/(2^(CtxRPL19-CtyRPL19)) One-way analysis of variance was applied to determine statistical significant among groups, where p<0.05 was considered significant. […]

SMILES: C=C(NC(=O)C(=C)NC(=O)c1csc(C2=N[C@@H]3c4csc(n4)[C@H]4NC(=O)c5csc(n5)[C@H]([C@](C)(O)[C@@H](C)O)NC(=O)[C@H]5CSC(=N5)/C(=C/C)NC(=O)[C@H]([C@@H](C)O)NC(=O)c5csc(n5)[C@]3(CC2)NC(=O)[C@H](C)NC(=O)C(=C)NC(=O)[C@H](C)NC(=O)[C@H]([C@@H](C)CC)N[C@@H]2C=Cc3c([C@H](C)O)cc(nc3[C@H]2O)C(=O)O[C@@H]4C)n1)C(N)=O [thiostrepton]
- transcript levels of FOXM1 target genes Ccndl and Sox2: decreased
